Assay results published in patent US20130190268A1, “BIOTINYLATED POLYSACCHARIDES HAVING AN ANTITHROMBOTIC ACTIVITY AND IMPROVED METABOLIC STABILITY” (SANOFI, priority 2010, published 2013).
Where a name gives a salt, the structure may show the parent alone.

Legend:
biotinidase = molecular target: T1, biotinidase (Homo sapiens, UniProt P43251); assay: Metabolic stability in human plasma medium at pH 6.0 with respect to biotinidase activity; format: in vitro ADME; settings: pooled human plasma, pH 6.0, 1 μM, 37° C., LC/MS-MS
T1 construct: Ten individual batches of human plasma originating from 5 men and 5 women; from tissue; host or cells: pooled human plasma (5 men, 5 women), sodium citrate
T1 sequence (P43251 22-523): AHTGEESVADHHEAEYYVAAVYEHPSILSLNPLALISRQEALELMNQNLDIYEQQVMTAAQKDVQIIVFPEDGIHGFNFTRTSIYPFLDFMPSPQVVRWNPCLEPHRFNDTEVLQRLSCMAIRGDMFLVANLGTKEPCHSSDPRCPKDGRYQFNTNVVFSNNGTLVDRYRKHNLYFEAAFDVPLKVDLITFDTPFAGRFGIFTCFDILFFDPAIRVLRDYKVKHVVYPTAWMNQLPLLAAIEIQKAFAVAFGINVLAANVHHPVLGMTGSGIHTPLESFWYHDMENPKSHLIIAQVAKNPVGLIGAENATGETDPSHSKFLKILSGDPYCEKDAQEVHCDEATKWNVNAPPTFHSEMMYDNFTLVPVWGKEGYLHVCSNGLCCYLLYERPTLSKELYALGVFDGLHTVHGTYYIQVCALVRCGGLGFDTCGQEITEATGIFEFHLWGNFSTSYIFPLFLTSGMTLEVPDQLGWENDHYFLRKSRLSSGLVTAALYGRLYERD
Procedure: The metabolic stability of the compounds according to the invention with respect to biotinidase activity was studied on human plasma having been sampled on sodium citrate as anticoagulant. Ten individual batches of human plasma originating from 5 men and 5 women, constituting the evaluation matrix, were used and pooled in order to evaluate the metabolic stability of the compounds. The human plasma was incubated under the following conditions: • incubation medium (freshly prepared): 740 μl of 54 mM of sodium phosphate buffer, pH 6.0, containing 1.08 mM of disodium EDTA and 4.3 mM of cysteamine hydrochloride, • human plasma: 40 μl • concentrations of the compounds to be studied: 1 μM • incubation time: 24 hours • incubation temperature: 37° C.
The reaction is initiated by adding the compound to be studied, after a 10-minute period of preincubation of the plasma and of the incubation medium. At the end of the incubation period (24 hours), the reaction is stopped.
The compounds according to the invention are quantified according to a specific LC/MS-MS method.
The metabolization of each compound studied is measured by monitoring the disappearance of the unchanged product, the concentrations being determined for each incubation sample at time 0 hours and at time 24 hours, and the percentage metabolization being calculated according to the following formula: […]
The terms [compound at T 24H] and [compound at T 0H] correspond to the concentration of the compound to be studied in the reactive medium after 24 hours and before the beginning of the reaction, respectively.

avidin = avidin (Gallus gallus, UniProt P02701); assay: Neutralization with avidin: avidin-coated beads, centrifugation, anti-factor Xa activity assayed in supernatant; format: binding; settings: after centrifugation
Procedure: The resulting mixture is centrifuged and the anti-factor Xa activity is assayed in the supernatant.

[1] = molecular target: coagulation factor Xa, in the presence of antithrombin (Homo sapiens, UniProt P01008); assay: Antithrombin-dependent anti-factor Xa activity (in vitro inhibition of coagulation factor Xa); format: biochemical; settings: read-out: IC50 (dose enabling 50% inhibition), anti-Xa activity (converted)
Source text: The activity of the compounds according to the invention was studied in an in vitro model of inhibition of coagulation factor Xa, in the presence of antithrombin (antithrombin-dependent anti-factor Xa activity), as described by J.-M. Herbert et al., Blood, 1998, 91, 4197-4205.

Chain of avidin (P02701 25-152, species assumed): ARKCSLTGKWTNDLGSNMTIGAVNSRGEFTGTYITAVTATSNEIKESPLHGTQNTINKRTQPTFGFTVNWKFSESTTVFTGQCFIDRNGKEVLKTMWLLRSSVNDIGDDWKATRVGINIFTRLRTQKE
Chain of coagulation factor Xa, in the presence of antithrombin (P01008 33-464): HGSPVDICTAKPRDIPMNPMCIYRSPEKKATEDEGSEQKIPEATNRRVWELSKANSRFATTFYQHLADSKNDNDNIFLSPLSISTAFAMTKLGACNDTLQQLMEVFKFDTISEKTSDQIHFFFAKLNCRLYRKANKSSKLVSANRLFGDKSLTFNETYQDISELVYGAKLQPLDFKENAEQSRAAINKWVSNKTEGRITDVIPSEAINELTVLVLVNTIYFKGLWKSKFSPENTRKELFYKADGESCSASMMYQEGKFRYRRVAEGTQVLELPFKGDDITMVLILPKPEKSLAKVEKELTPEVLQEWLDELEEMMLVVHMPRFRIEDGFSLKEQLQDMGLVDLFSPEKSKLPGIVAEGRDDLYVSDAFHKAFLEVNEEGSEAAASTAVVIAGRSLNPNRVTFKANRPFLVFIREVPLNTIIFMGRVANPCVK

Row | SMILES | metabolization percentage (compound metabolized after 24 h) (biotinidase) [%] | anti-factor Xa activity in the supernatant (avidin; 0.00005 μg product/μg avidin) [%] | anti-factor Xa activity in the supernatant (avidin; 0.0001 μg product/μg avidin) [%] | anti-factor Xa activity in the supernatant (avidin; 0.001 μg product/μg avidin) [%] | anti-factor Xa activity in the supernatant (avidin; 0.01 μg product/μg avidin) | IC50 [1] [nM]
1 | COC1OC(COS(=O)(=O)O)C(OC2OC(C(=O)O)C(OC3OC(COS(=O)(=O)O)C(OC4OC(C(=O)O)C(OC5OC(COS(=O)(=O)O)C(OC)C(OC)C5NC(=O)CCCCCN(C)C(=O)CCCCC5SCC6NC(=O)NC65)C(OC)C4OC)C(OS(=O)(=O)O)C3OS(=O)(=O)O)C(OC)C2OC)C(OS(=O)(=O)O)C1OS(=O)(=O)O [Compound 3, Methyl (2-deoxy-3,4-di-O-methyl-2-{[6-(methyl{5-[(3aS,4S,6aR)-2-oxohexahydro-1H-thieno[3,4-d]imidazol-4-yl]pentanoyl}amino)hexanoyl]amino}-6-O-sulfonato-α-D-glucopyranosyl)-(1→4)-(2,3-di-O-methyl-β-D-glucopyranosyluronate)-(1→4)-(2,3,6-tri-O-sulfonato-α-D-glucopyranosyl)-(1→4)-(2,3-di-O-methyl-α-L-idopyranosyluronate)-(1→4)-2,3,6-tri-O-sulfonato-α-D-glucopyranoside, sodium salt] | 0.8 | 0.7 ± 2.4 | 1.2 ± 0.6 | 1.8 ± 0.2 | 0.9%^(1) | 9.53
2 | COC1OC(COS(=O)(=O)O)C(OC2OC(C(=O)O)C(OC3OC(COS(=O)(=O)O)C(OC4OC(C(=O)O)C(OC5OC(COS(=O)(=O)O)C(OC)C(OC)C5NC(=O)CCCCCNC(=O)CCCCC5SCC6NC(=O)NC65)C(OC)C4OC)C(OS(=O)(=O)O)C3OS(=O)(=O)O)C(OC)C2OC)C(OS(=O)(=O)O)C1OS(=O)(=O)O (stereo not drawn) [Idrabiotaparinux, idrabiotaparinux, reference compound] | 15.9 | 1.2 ± 0.0 | 2.5 ± 1.1 | 2.6 ± 0.3 | 5.2 ± 3.4% | 9.49

Further lines, results first:

Row | metabolization percentage (compound metabolized after 24 h) (biotinidase) [%] | anti-factor Xa activity in the supernatant (avidin; 0.00005 μg product/μg avidin) [%] | anti-factor Xa activity in the supernatant (avidin; 0.0001 μg product/μg avidin) [%] | anti-factor Xa activity in the supernatant (avidin; 0.001 μg product/μg avidin) [%] | anti-factor Xa activity in the supernatant (avidin; 0.01 μg product/μg avidin) | IC50 [1] [nM] | SMILES
3 | 1.7 | 1.3 ± 0.9 | 5.6 ± 1.0 | 6.0 ± 0.2 | 6.8 ± 2.0% | 10 | COC1OC(COS(=O)(=O)O)C(OC2OC(C(=O)O)C(OC3OC(COS(=O)(=O)O)C(OC4OC(C(=O)O)C(OC5OC(COS(=O)(=O)O)C(OC)C(OC)C5NC(=O)CCCCCOCCCCCC5SCC6NC(=O)NC65)C(OC)C4OC)C(OS(=O)(=O)O)C3OS(=O)(=O)O)C(OC)C2OC)C(OS(=O)(=O)O)C1OS(=O)(=O)O [Compound 1, Methyl (2-deoxy-3,4-di-O-methyl-2-{[6-({5-[(3aS,4S,6aR)-2-oxohexahydro-1H-thieno[3,4-d]imidazol-4-yl]pentyl}oxy)hexanoyl]amino}-6-O-sulfonato-α-D-glucopyranosyl)-(1→4)-(2,3-di-O-methyl-β-D-glucopyranosyluronate)-(1→4)-(2,3,6-tri-O-sulfonato-α-D-glucopyranosyl)-(1→4)-(2,3-di-O-methyl-α-L-idopyranosyluronate)-(1→4)-2,3,6-tri-O-sulfonato-α-D-glucopyranoside, sodium salt]
4 | −3.3 | 4.9 ± 1.4 | 3.0 ± 0.7 | 5.2 ± 0.5 | 4.1 ± 0.2% | 9.93 | COC1OC(COS(=O)(=O)O)C(OC2OC(C(=O)O)C(OC3OC(COS(=O)(=O)O)C(OC4OC(C(=O)O)C(OC5OC(COS(=O)(=O)O)C(OC)C(OC)C5NC(=O)CCCCCN(C)CCCCCC5SCC6NC(=O)NC65)C(OC)C4OC)C(OS(=O)(=O)O)C3OS(=O)(=O)O)C(OC)C2OC)C(OS(=O)(=O)O)C1OS(=O)(=O)O [Compound 2, Methyl (2-deoxy-3,4-di-O-methyl-2-{[6-(methyl{5-[(3aS,4S,6aR)-2-oxohexahydro-1H-thieno[3,4-d]imidazol-4-yl]pentyl}amino)hexanoyl]amino}-6-O-sulfonato-α-D-glucopyranosyl)-(1→4)-(2,3-di-O-methyl-β-D-glucopyranosyluronate)-(1→4)-(2,3,6-tri-O-sulfonato-α-D-glucopyranosyl)-(1→4)-(2,3-di-O-methyl-α-L-idopyranosyluronate)-(1→4)-2,3,6-tri-O-sulfonato-α-D-glucopyranoside, sodium salt]
5 | 5.3 | 3.6 ± 1.2 | 2.5 ± 2.3 | 4.5 ± 0.8 | 2.4 ± 0.0% | 9.22 | COC1OC(COS(=O)(=O)O)C(OC2OC(C(=O)O)C(OC3OC(COS(=O)(=O)O)C(OC4OC(C(=O)O)C(OC5OC(COS(=O)(=O)O)C(OC)C(OC)C5NC(=O)CCCCNC(=O)NCCCCC5SCC6NC(=O)NC65)C(OC)C4OC)C(OS(=O)(=O)O)C3OS(=O)(=O)O)C(OC)C2OC)C(OS(=O)(=O)O)C1OS(=O)(=O)O [Compound 4, Methyl (2-deoxy-3,4-di-O-methyl-2-({5-[({4-[(3aS,4S,6aR)-2-oxohexahydro-1H-thieno[3,4-d]imidazol-4-yl]butyl}carbamoyl)amino]pentanoyl}amino)-6-O-sulfonato-α-D-glucopyranosyl)-(1→4)-(2,3-di-O-methyl-β-D-glucopyranosyluronate)-(1→4)-(2,3,6-tri-O-sulfonato-α-D-glucopyranosyl)-(1→4)-(2,3-di-O-methyl-α-L-idopyranosyluronate)-(1→4)-2,3,6-tri-O-sulfonato-α-D-glucopyranoside, sodium salt]
